Results as given in ChEMBL document CHEMBL3112495, “Diphenylpyridylethanamine (DPPE)-based aminoheterocycles as cholesteryl ester transfer protein inhibitors” (Bioorg Med Chem Lett, 2014).
One block for each molecule: values may come before it.

Tests used:
[1] = target: T1, Cholesteryl ester transfer protein (Homo sapiens, UniProt P11597); assay: Inhibition of CETP in human whole plasma using [3H]-CE/HDL after 10 mins
T1 sequence (P11597 whole entry): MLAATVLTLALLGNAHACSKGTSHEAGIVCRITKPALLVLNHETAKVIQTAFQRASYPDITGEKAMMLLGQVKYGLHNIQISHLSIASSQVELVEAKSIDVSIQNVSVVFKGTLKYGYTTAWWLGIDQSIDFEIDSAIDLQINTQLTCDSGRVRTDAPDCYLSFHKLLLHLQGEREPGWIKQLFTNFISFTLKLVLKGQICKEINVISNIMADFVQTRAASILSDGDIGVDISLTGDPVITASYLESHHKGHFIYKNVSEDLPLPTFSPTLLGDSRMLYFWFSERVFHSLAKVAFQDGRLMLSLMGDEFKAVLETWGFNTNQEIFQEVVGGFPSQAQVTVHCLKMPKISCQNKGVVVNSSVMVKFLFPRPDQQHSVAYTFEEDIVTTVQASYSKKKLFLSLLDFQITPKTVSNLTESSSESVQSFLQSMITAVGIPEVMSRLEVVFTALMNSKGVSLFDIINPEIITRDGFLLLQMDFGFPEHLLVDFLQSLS

[2] = target: T1, Cholesteryl ester transfer protein; assay: Inhibition of human recombinant CETP using [3H]-CE/HDL by scintillation proximity assay
[3] = Metabolic stability of the compound in rat liver microsomes assessed as compound remaining after 10 mins; type: ADME; settings: read-out: Stability
[4] = Metabolic stability of the compound in mouse liver microsomes assessed as compound remaining after 10 mins; type: ADME, Microsome; settings: read-out: Stability
[5] = target: Cytochrome P450 2D6 (Homo sapiens, UniProt P10635); assay: Inhibition of CYP2D6 (unknown origin); type: ADME
Cytochrome P450 2D6, sequence (P10635 whole entry): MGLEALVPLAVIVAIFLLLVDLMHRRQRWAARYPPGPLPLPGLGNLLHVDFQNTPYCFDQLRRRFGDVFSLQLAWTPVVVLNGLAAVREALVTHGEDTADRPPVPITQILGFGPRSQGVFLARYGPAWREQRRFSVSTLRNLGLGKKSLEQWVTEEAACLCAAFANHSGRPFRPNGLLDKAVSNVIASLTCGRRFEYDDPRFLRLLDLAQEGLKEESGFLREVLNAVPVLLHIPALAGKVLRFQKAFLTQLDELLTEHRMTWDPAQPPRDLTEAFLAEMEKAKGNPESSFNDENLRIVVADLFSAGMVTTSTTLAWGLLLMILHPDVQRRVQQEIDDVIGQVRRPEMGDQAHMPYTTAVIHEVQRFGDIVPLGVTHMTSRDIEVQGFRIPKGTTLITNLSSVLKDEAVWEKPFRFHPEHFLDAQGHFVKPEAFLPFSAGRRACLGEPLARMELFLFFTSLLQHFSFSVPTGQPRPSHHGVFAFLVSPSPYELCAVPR

[6] = target: T2, Cytochrome P450 3A4 (Homo sapiens, UniProt P08684); assay: Inhibition of CYP3A4 (unknown origin) using 7-benzyloxy-4-trifluoromethylcoumarin as substrate; type: ADME
T2 sequence (P08684 whole entry): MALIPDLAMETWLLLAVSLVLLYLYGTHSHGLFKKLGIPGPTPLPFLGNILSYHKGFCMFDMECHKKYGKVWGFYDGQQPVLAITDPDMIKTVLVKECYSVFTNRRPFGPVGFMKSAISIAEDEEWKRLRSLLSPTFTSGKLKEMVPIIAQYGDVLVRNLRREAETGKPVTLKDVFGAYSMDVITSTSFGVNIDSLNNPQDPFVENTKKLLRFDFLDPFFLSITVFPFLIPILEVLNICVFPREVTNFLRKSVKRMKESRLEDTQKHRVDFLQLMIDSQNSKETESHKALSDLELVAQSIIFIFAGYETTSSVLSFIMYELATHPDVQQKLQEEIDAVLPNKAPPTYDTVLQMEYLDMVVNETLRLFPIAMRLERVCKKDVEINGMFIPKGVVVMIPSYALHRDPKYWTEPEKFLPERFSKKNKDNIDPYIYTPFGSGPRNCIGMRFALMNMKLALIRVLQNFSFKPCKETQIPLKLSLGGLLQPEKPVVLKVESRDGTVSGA

[7] = target: T2, Cytochrome P450 3A4; assay: Inhibition of CYP3A4 (unknown origin) using benzyloxyresorufin as substrate; type: ADME
[8] = target: T3, Nuclear receptor subfamily 1 group I member 2 (Homo sapiens, UniProt O75469); assay: Activation of PXR (unknown origin)
T3 sequence (O75469 whole entry): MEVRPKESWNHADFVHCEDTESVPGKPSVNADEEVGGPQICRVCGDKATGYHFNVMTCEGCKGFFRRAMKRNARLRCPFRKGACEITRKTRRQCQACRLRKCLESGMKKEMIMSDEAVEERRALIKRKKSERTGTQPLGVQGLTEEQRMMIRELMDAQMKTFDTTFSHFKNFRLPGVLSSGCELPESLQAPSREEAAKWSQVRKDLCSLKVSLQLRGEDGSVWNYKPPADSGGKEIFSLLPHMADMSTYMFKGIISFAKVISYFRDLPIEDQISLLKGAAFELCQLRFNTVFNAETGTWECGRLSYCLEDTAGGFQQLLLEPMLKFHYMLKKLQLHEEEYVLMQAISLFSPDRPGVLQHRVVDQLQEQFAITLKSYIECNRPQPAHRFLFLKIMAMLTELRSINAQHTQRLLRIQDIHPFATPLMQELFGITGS

[9] = Metabolic stability of the compound in human liver microsomes assessed as compound remaining after 10 mins; type: ADME; settings: read-out: Stability
[10] = target: Cytochrome P450 2C19 (Homo sapiens, UniProt P33261); assay: Inhibition of CYP2C19 (unknown origin); type: ADME
Cytochrome P450 2C19, sequence (P33261 whole entry): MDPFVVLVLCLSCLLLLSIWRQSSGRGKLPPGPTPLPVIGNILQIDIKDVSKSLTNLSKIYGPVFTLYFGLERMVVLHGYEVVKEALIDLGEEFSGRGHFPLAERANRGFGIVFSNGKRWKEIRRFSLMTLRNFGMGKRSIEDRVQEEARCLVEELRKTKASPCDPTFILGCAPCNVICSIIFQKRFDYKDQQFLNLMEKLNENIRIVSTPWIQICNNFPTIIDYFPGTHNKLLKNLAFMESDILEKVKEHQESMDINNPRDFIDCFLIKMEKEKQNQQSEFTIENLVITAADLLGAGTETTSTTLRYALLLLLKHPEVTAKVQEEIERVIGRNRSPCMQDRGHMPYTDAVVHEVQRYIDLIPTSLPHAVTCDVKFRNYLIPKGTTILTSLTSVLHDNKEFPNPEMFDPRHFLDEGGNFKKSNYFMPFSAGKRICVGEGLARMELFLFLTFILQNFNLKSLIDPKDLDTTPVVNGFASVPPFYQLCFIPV

[11] = target: T4, PXR (Homo sapiens, UniProt O75469); assay: Activation of PXR (unknown origin) relative to rifampicin
T4 sequence (O75469 whole entry): T3 sequence (O75469 whole entry)

[12] = target: T5, Cytochrome P450 1A2 (Homo sapiens, UniProt P05177); assay: Inhibition of CYP1A2 (unknown origin); type: ADME
T5 sequence (P05177 whole entry): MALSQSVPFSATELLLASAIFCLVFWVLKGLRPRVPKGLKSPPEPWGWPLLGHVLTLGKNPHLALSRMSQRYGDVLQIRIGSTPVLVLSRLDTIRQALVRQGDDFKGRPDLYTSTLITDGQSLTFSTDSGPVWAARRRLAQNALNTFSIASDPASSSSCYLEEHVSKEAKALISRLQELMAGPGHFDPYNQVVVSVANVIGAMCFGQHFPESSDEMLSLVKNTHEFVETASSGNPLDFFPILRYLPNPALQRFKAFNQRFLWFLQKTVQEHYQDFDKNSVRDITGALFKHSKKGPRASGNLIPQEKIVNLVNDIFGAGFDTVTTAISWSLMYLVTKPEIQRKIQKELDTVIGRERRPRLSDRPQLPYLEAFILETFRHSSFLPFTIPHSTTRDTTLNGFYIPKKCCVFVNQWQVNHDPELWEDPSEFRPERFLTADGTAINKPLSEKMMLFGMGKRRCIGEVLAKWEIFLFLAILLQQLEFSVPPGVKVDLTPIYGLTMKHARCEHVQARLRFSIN

[13] = target: Cytochrome P450 2C9 (Homo sapiens, UniProt P11712); assay: Inhibition of CYP2C9 (unknown origin); type: ADME
Cytochrome P450 2C9, sequence (P11712 whole entry): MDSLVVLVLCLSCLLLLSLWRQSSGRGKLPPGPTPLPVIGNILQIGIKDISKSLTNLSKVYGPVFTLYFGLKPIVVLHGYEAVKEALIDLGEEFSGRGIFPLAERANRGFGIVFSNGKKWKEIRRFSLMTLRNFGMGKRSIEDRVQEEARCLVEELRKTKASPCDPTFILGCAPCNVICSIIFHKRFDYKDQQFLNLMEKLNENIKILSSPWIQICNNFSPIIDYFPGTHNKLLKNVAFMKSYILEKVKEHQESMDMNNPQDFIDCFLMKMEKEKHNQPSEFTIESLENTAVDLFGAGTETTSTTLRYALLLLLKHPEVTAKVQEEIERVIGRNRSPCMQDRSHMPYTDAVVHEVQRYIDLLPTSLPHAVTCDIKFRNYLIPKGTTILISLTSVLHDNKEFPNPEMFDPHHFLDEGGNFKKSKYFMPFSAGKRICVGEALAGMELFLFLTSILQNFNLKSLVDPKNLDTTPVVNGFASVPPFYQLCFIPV

[14] = Plasma concentration in hCETP/apo B-100 transgenic mouse at 30 mg/kg, po after 8 hrs; type: ADME, organism-based; set-up: dose 30 mg/kg, route oral
[15] = Plasma concentration in hCETP/apo B-100 transgenic mouse at 30 mg/kg, po after 2 hrs; type: ADME, organism-based; set-up: dose 30 mg/kg, route oral
[16] = AUC in hCETP/apo B-100 transgenic mouse at 30 mg/kg, po; type: ADME, organism-based; set-up: dose 30 mg/kg, route oral; settings: plasma
[17] = test system: Mus musculus; assay: Inhibition of CETP in hCETP/apo B-100 transgenic mouse at 30 mg/kg, po after 8 hrs; type: functional
[18] = Plasma concentration in hCETP/apo B-100 transgenic mouse at 30 mg/kg, po after 4 hrs; type: ADME, organism-based; set-up: dose 30 mg/kg, route oral

SMILES: Cc1nc(NC(Cc2ccccc2)(c2cc(F)cc(C(F)(F)F)c2)c2ccc(Cl)cn2)sc1C (racemic)
IC50 [1]: 29.5 µM | IC50 [2]: 0.4 µM

SMILES: Fc1cc(C(F)(F)F)cc(C(Cc2ccccc2)(Nc2nc3ccccc3s2)c2ccc(Cl)cn2)c1 (stereo unspecified)
IC50 [1]: 23 µM | IC50 [2]: 0.5 µM

SMILES: CC(C)(C)c1csc(NC(Cc2ccccc2)(c2cc(F)cc(C(F)(F)F)c2)c2ccc(Cl)cn2)n1 (stereo unspecified)
IC50 [2]: 7.5 µM

SMILES: Fc1cc(C(F)(F)F)cc(C(Cc2ccccc2)(Nc2nnc(-c3ccccc3)[nH]2)c2ccc(Cl)cn2)c1 (stereo unspecified)
IC50 [2]: > 32 µM

SMILES: Fc1cc(OC(F)(F)C(F)F)cc([C@@](Cc2ccccc2)(Nc2nc3ccccc3[nH]2)c2ccc(Cl)cn2)c1
IC50 [5]: 40 µM | IC50 [6]: 40 µM | IC50 [1]: 15 µM | IC50 [7]: 13 µM | EC60 [8]: > 17 µM | IC50 [10]: 3 µM | IC50 [2]: 0.09 µM | Emax [11]: 70% | IC50 [12]: 40 µM | IC50 [13]: 19 µM

SMILES: Cc1nc(N[C@@](Cc2ccccc2)(c2cc(F)cc(C(F)(F)F)c2)c2ccc(Cl)cn2)sc1C
IC50 [2]: 12.2 µM

SMILES: Fc1cc(C(F)(F)F)cc(C(Cc2ccccc2)(Nc2nc(C(F)(F)F)cs2)c2ccc(Cl)cn2)c1 (stereo unspecified)
IC50 [2]: 1.2 µM

SMILES: Fc1cc(C(F)(F)F)cc([C@@](Cc2ccccc2)(Nc2nc3c(s2)CCC3)c2ccc(Cl)cn2)c1
remaining at 10 min [3]: 56% | remaining at 10 min [4]: 33% | IC50 [1]: 8.2 µM | concentration at 8 h [14]: 142 nM | remaining at 10 min [9]: 73% | IC50 [2]: 0.04 µM | concentration at 2 h [15]: 2530 nM | AUC [16]: 8.18 µM·h | inhibition in vivo at 30 mg/kg [17]: 26% | concentration at 4 h [18]: 1240 nM

SMILES: Fc1cc(C(F)(F)F)cc([C@](Cc2ccccc2)(Nc2nc3c(s2)CCCC3)c2ccc(Cl)cn2)c1
IC50 [2]: 10.8 µM

Results, then the molecule that gave them:

remaining at 10 min [3]: 55% | remaining at 10 min [4]: 59% | IC50 [5]: > 40 µM | IC50 [6]: > 40 µM | IC50 [1]: 3.2 µM | IC50 [7]: > 40 µM | EC60 [8]: > 5.6 µM | remaining at 10 min [9]: 82% | IC50 [10]: > 40 µM | IC50 [2]: 0.02 µM | Emax [11]: 44% | IC50 [12]: > 40 µM | IC50 [13]: > 40 µM
SMILES: Cc1sc(N[C@](Cc2ccccc2)(c2cc(F)cc(OC(F)(F)C(F)F)c2)c2ccc(Cl)cn2)nc1C(F)(F)F

remaining at 10 min [3]: 95% | remaining at 10 min [4]: 100% | IC50 [5]: > 40 µM | IC50 [6]: > 40 µM | IC50 [1]: 6.5 µM | IC50 [7]: > 40 µM | EC60 [8]: > 5.6 µM | remaining at 10 min [9]: 100% | IC50 [10]: > 40 µM | IC50 [2]: 0.04 µM | Emax [11]: 37% | IC50 [12]: > 40 µM | IC50 [13]: > 40 µM
SMILES: Fc1cc(OC(F)(F)C(F)F)cc([C@@](Cc2ccccc2)(Nc2nc(C(F)(F)F)c(Br)s2)c2ccc(Cl)cn2)c1

remaining at 10 min [3]: 83% | remaining at 10 min [4]: 78% | IC50 [5]: 40 µM | IC50 [6]: 40 µM | IC50 [1]: 14.8 µM | IC50 [7]: 40 µM | EC60 [8]: > 17 µM | remaining at 10 min [9]: 98% | IC50 [10]: 13 µM | IC50 [2]: 0.22 µM | Emax [11]: 45% | IC50 [12]: 40 µM | IC50 [13]: 40 µM
SMILES: Fc1cc(OC(F)(F)C(F)F)cc([C@@](Cc2ccccc2)(Nc2nc(C(F)(F)F)cs2)c2ccc(Cl)cn2)c1

IC50 [2]: 0.1 µM
SMILES: Fc1cc(C(F)(F)F)cc(C(Cc2ccccc2)(Nc2nc(C(F)(F)F)c(Br)s2)c2ccc(Cl)cn2)c1 (stereo unspecified)

IC50 [1]: 5.5 µM | IC50 [2]: 0.04 µM
SMILES: Cc1nc(N[C@](Cc2ccccc2)(c2cc(F)cc(OC(F)(F)C(F)F)c2)c2ccc(Cl)cn2)sc1C
